For test [1], the system named is C. difficile R20291. The following applies: previously observed / recorded values, ref 76 (vancomycin, fidaxomicin), ref 10 (metronidazole), cited from earlier work.
Test [2] relates to C. difficile R20291. Nature of the test: Growth inhibition assay (16 h overnight growth, culture density at 630 nm). The following applies: for Concentration of antibiotic necessary to suppress 16-hour growth of C. difficile: >=90% inhibition of overnight growth vs untreated, R20291, anaerobic 37°C, n>=3. In kind it is cell-based, Clostridioides difficile. Here is the method: Two-fold serial dilutions of BHIS media containing the indicated concentrations of antibiotics were prepared in sterile 96 well plates (ThermoFisher Scientific). […] Inoculated plates were incubated anaerobically at 37°C for 16 h and then removed from the chamber. […] All experiments were performed with a minimum of three samples, and the means and standard deviations were reported. To analyze the effects of the antibiotics, samples containing peptides and antibiotics were compared to samples containing only peptides by two-way analysis of variance using GraphPad Prism 6.

The test system of test [3] is C. difficile R20291 vegetative cells. As to the kind of experiment: Enumeration of colony forming units after overnight exposure. In kind it is cell-based, Clostridioides difficile. The following applies: sub-lethal piscidins (2 μM p1/p1-Cu2+ or 4 μM p3/p3-Cu2+) with sub-lethal antibiotic, 16 h exposure. How it is done:
200 μL samples of BHIS broth containing the indicated concentrations of antibiotics and/or piscidins were inoculated using a 1:10 ratio, in 96 well plates, with exponentially growing C. difficile R20291 cells and incubated for 16 h at 37°C. Samples were spread as duplicates on BHIS agar plates containing 20 μg/mL erythromycin. These plates were incubated anaerobically at 37°C for 48 h before the viable colonies were counted.

Test [4] has as its system C. difficile cells. As to the kind of experiment: Transmission electron microscopy of cell envelope damage and lysis. In kind it is cell-based, Clostridioides difficile. To be noted: 5 min treatment, TEM. Here is the method:
Overnight cultures were prepared by inoculating individual colonies into 3 mL BHIS broth and grown for 14–16 h at 37°C in the anaerobic chamber. The overnight cultures were diluted 1:20 into 4 mL BHIS broth and the cultures were grown until they reached exponential phase (OD600 0.4–0.6). […] After treatment, the samples were transferred to 2 mL Eppendorf tubes and centrifuged for 2 minutes to collect the pellets. The pellets were individually suspended in 1 mL of 1X phosphate-buffered saline solution with 4% paraformaldehyde, prepared as described in [75]. The samples were fixed in the anaerobic chamber for 45 min. After fixation, the eppendorf tubes were removed from the chamber and the exteriors were sterilized with SporGon (Thomas Scientific), 10% bleach, and 70% ethanol (VWR). Samples were incubated on 200 mesh formvar-coated copper grids (Electron Microscopy Sciences, Hatfield, PA) that were glow-discharged. Grids were washed with water, incubated with 2% uranyl acetate, washed with water, dried overnight at room temperature, and imaged using a JEM-2100F TEM (JEOL, Akishima, Japan) at a voltage of 200 kV and using a Gatan OneView camera. The percentage of lysed cells in each condition and the standard error of each condition were compared using the Wilson confidence interval.

Test [5] relates to C. difficile R20291 spores. Nature of the test: Spore viability assay. To be noted: 16 h, 37°C; for Viable colonies from spores after peptide exposure (spore data): spores in PBS, plated with 0.1% taurocholic acid, individual samples, S6 File; for Viability of dormant C. difficile spores: peptide at or above the concentrations necessary to kill vegetative cells (4/8 μM p1, 8/15 μM p3). In kind it is cell-based, Clostridioides difficile. How it is done: To isolate spores, exponentially growing C. difficile R20291 was inoculated 1:10 into 50 mL of BHIS broth and grown anaerobically at 37°C for 16 h. This culture was removed from anaerobic chamber and ethanol was added to a final concentration of 50%. The sample was rocked aerobically for 6 h. The absence of viable vegetative cells was confirmed by spreading volumes up to 1 mL on BHIS plates and incubating anaerobically for 48 h. […] Peptides were tested at final concentrations corresponding to 1X and 2X their previously observed inhibitory concentrations. All the samples were incubated in the chamber at 37°C for 16 hrs. After incubation, 50 μL aliquots of each sample were plated in triplicate on BHIS plates containing 20 μg/mL erythromycin and 0.1% taurocholic acid agar plates to induce germination. An additional 50 μL aliquot was plated on BHIS containing 20 μg/mL erythromycin to ensure that there was no contamination with vegetative cells. The plates were incubated in the chamber at 37°C for 48 h before the viable colonies were counted.

The test system of test [6] is C. difficile cells. Nature of the test: Propidium iodide uptake assay (live cell microscopy). In kind it is cell-based, Clostridioides difficile. The following applies: 20 μg/mL PI; 4 μM p1/p1Cu, 8 μM p3/p3Cu; apo 30 min, metalated 10 min; anaerobic 37°C; qualitative microscopy. Here is the method:
Samples containing apo-peptides and metalated peptides were incubated for 30 min and 10 min, respectively. After incubation, cells were centrifuged at 704 rfc for 5 minutes and resuspended in 1.5 mL fresh BHIS broth. Negative controls were incubated with PI for 10 or 30 minutes but contained no piscidin. Positive controls were removed from the anaerobic chamber and incubated aerobically for 1 h at room temperature with propidium iodine and 50% ethanol. Within the anaerobic chamber, samples were injected into rose chambers for microscopic imaging as detailed in [53]. The rose chambers were removed from the anaerobic chamber and the outsides were sterilized with 70% ethanol and 10% bleach. […] Samples were imaged with time-lapse differential interference contrast (DIC) microscopy and propidium iodide was monitored at excitation/emission wavelengths of 535/617 nm.

Test [7] concerns C. difficile. The following applies: in vitro, anaerobic; cited from earlier work. The text has this:
These antibiotics target different cellular components, providing us with a way to identify whether increased efficacy relies on specific mechanistic aspects of the antibiotics and peptides. We tested this by inoculating C. difficile R20291 into media co ...

[8] abbreviates: with 2 μM p1 and 4 μM p3 combined.
[9] abbreviates: 0.5 μg/mL vancomycin, 4 μM p1-Cu2+, or both.

Where “and” joins values, the source holds several entries; their conditions need not be identical. Identical values can stand only once. Like-named read-outs stand apart in the source and are kept apart here. Some results are limits rather than exact numbers.

As for `O=C(O)c1cn(C2CC2)c2cc(N3CCNCC3)c(F)cc2c1=O` [Ciprofloxacin, ciprofloxacin], the “Concentration of antibiotic necessary to suppress 16-hour growth of C. difficile, no peptide” value (“Concentration … no peptide” below) in test [1] was greater than 128 µg/mL.
Take `CCc1c(Cl)c(O)c(Cl)c(O)c1C(=O)O[C@H]1[C@H](O)[C@H](OC)[C@H](OC/C2=C\C=C\C[C@H](O)/C(C)=C/[C@H](CC)[C@@H](O[C@@H]3OC(C)(C)[C@@H](OC(=O)C(C)C)[C@H](O)[C@@H]3O)/C(C)=C/C(C)=C/C[C@@H]([C@@H](C)O)OC2=O)O[C@@H]1C` [Fidaxomicin, fidaxomicin]: the “Fold improvement of effective antibiotic concentration” value in test [2] (with 2 μM p1-Cu2+ vs no peptide) is 20 fold; in test [2] (with 2 μM p1 and 4 μM p3 combined vs no peptide), 40 fold; in test [2] (with 2 μM p1 vs no peptide), 5 fold. The “Concentration of antibiotic necessary to suppress 16-hour growth of C. difficile” value in test [2] (with 2 μM p1) is 0.0500 µg/mL; in test [2] (with 2 μM p1, listed as fidaxomicin), 0.05 µg/mL; in test [2] (with 2 μM p1Cu), 0.0125 µg/mL; in test [2] (setting [8]), 0.00625 µg/mL; in test [2] (with 4 μM p3) it was 0.050 µg/mL; in test [2] (with 4 μM p3Cu), greater than 0.100 µg/mL. Also, the “Concentration of antibiotic necessary to suppress 16-hour growth of C. difficile” value in test [2] (with 4 μM p3Cu, listed as fidaxomicin) is greater than 0.1 µg/mL. In addition, in test [3], the “Number of viable cells after co-treatment” value (shortened to “Number of viable cells”) is “further reduced the number of viable cells”. Also, the “Concentration … no peptide” value in test [1] was 0.256 µg/mL.
Turning to `Cc1ncc([N+](=O)[O-])n1CCO` [Metronidazole, metronidazole], the “Concentration of antibiotic necessary to suppress 16-hour growth of C. difficile” value was determined as 0.500 µg/mL in test [2] (with 2 μM p1); 0.5 µg/mL in test [2] (with 2 μM p1, listed as metronidazole); 1.0000 µg/mL in test [2] (with 2 μM p1Cu); 1 µg/mL in test [2] (with 2 μM p1Cu, listed as metronidazole); 0.0625 µg/mL in test [2] (with 4 μM p3); 1.000 µg/mL in test [2] (with 4 μM p3Cu). Moreover, the “Concentration of antibiotic necessary to suppress 16-hour growth of C. difficile” value in test [2] (with 4 μM p3Cu, listed as metronidazole) is 1 µg/mL. Moreover, the “Number of viable cells” value in test [3] is recorded as “further reduced the number of viable cells”. Moreover, the “Concentration … no peptide” value in test [1] (listed as metronidazole) is 2 µg/mL; in test [1], 2.000 µg/mL.
Take `CN[C@H](CC(C)C)C(=O)N[C@H]1C(=O)N[C@@H](CC(N)=O)C(=O)N[C@H]2C(=O)N[C@H]3C(=O)N[C@H](C(=O)N[C@H](C(=O)O)c4cc(O)cc(O)c4-c4cc3ccc4O)[C@H](O)c3ccc(c(Cl)c3)Oc3cc2cc(c3O[C@@H]2O[C@H](CO)[C@@H](O)[C@H](O)[C@H]2O[C@H]2C[C@](C)(N)[C@H](O)[C@H](C)O2)Oc2ccc(cc2Cl)[C@H]1O` [Vancomycin, vancomycin]: the “Concentration of antibiotic necessary to suppress 16-hour growth of C. difficile” value in test [2] (with 2 μM p1) stood at 2.000 µg/mL; in test [2] (with 2 μM p1, listed as vancomycin), 2 µg/mL; in test [2] (with 2 μM p1Cu) it was 0.0625 µg/mL; in test [2] (setting [8]), 0.125 µg/mL; in test [2] (with 4 μM p3), 0.500 µg/mL; in test [2] (with 4 μM p3, listed as vancomycin) it was 0.5 µg/mL. Besides, the “Concentration of antibiotic necessary to suppress 16-hour growth of C. difficile” value in test [2] (with 4 μM p3Cu) is 0.250 µg/mL; in test [2] (with 4 μM p3Cu, listed as vancomycin), 0.25 µg/mL. Also, in test [3], the “Number of viable cells” value is “further reduced the number of viable cells”. For the same compound, the “Number of cells with cytoplasm / membrane leakage” value in test [4] (0.5 μg/mL vancomycin (22 cells observed) or 4 μM p1-Cu2+ (14 cells observed)) came to 8. Further, in test [4] (0.5 μg/mL vancomycin (of 22 cells), 4 μM p1-Cu2+ (of 14), both (of 19)), the “Number of lysed cells (severe to complete cell lysis)” value came out at 0. Besides, the “Proportion of lysed cells ("percentage")” value in test [4] (setting [9]) was 0. Also, the “Wilson estimate of proportion of lysed cells” value in test [4] (setting [9]) was 0.07692. Moreover, the “Concentration … no peptide” value is 4 µg/mL in test [1] (listed as vancomycin) and 4.000 µg/mL in test [1].
As to Piscidin 1 [p1], the “Viable colonies from spores after peptide exposure (spore data)” value was 10100 and 12400 and 9560 and 8440 and 7400 and 9040 in test [5] (1X MIC (4 μM p1, 8 μM p3)); 9320 and 11000 and 9200 and 8240 and 10000 and 9120 in test [5] (2X MIC (8 μM p1, 15 μM p3)). In test [5], the “Viability of dormant C. difficile spores” value is listed as “do not affect the viability”. The “Propidium iodide uptake by live C. difficile cells” value in test [6] is recorded as “did not visibly increase PI uptake”. For the same compound, the “Concentration that inhibits growth and kills exponentially growing C. difficile” value in test [7] is 4 µM.
For the compound Piscidin 3 [p3], the “Viable colonies from spores after peptide exposure (spore data)” value in test [5] (1X MIC (4 μM p1, 8 μM p3)) is 8760 and 8840 and 10100 and 7960 and 8080 and 8480; in test [5] (2X MIC (8 μM p1, 15 μM p3)), 8120 and 7200 and 9000 and 8280 and 10200 and 11400. In test [5], the “Viability of dormant C. difficile spores” value is reported as “do not affect the viability”. Moreover, the “Propidium iodide uptake by live C. difficile cells” value in test [6] is listed as “did not visibly increase PI uptake”. Besides, in test [7], the “Concentration that inhibits growth and kills exponentially growing C. difficile” value is 8 µM.

(Values after paper PMC10802969, “Host-defense piscidin peptides as antibiotic adjuvants against Clostridioides difficile” (PLOS ONE, 2024).)
